Entries after “also recorded” stand apart in the source; their conditions may differ.
Experiments:
[1] = tested on: HL60 cells; assay: Cytotoxicity (cell death) by 7-amino-actinomycin D staining and flow cytometry, HL60 cells
Experimental: (§1) The following cell lines were used: KMS-12-BM, K562, RPMI8226, OPM-2, NCI-H929, U266, and HL60. The cells were grown in 96-well tissue culture plates in a volume of 200 μl to a concentration of 1×10^6 cells/ml. Then, the cells were incubated for 20 h with 5 μg/ml, 10 μg/ml, and 20 μg/ml ET-18-OCH3 (final concentrations), respectively. Cell death was assessed by staining the cells with 7-amino-actinomycin D (final concentration 200 μg/ml) and analyzed via flow cytometry as described (see, e.g., Schmid, I. et al. (1994) J. Immunol. Meth. 170, 145-157; Ayuk, F. A. et al. (2005) Exp. Hematol. 33, 1531-1536).
(§2) The following human cell lines were used: • 1. KMS-12-BM (DMSZ no. ACC 551), bone marrow cells; myeloma/plasmacytoma; none of the genetic alterations defined herein; Chesi, M. et al. (2001), supra. • 2. K562 (ATCC no. CCL-243); bone marrow cells; CML; none of the genetic alterations defined herein; Delgado, M. D. et al. (2001), supra. • 3. […] OPM-2 (ATCC no. CRL-13007); lymphoblast cells; myeloma; t(4;14) chromosomal translocation; K650E FGFR3 gene mutation (AAG→GAG at codon 650); Chesi, M. et al. (2001), supra. • 5. NCI-H929 (ATCC no. CRL-9068); bone marrow cells; myeloma/plasmacytoma; t(4;14) chromosomal translocation; N13-G>D N-ras gene mutation (GGT→GAT at codon 13); Chesi, M. et al. (2001), supra. • 6. U266 (ATCC no. TIB-196); peripheral blood cells; myeloma/plasmacytoma; none of the genetic alterations defined herein; Chesi, M. et al. (2001), supra. • 7. HL60 (ATCC no. CCL-240); peripheral blood cells; AML; N61-Q>R N-ras gene mutation (CAA→CGA at codon 61); Bos, J. L. et al. (1984), supra. • 8. Jurkat (ATCC no. TIB-152); peripheral blood cells; ALL; 2 by deletion and 9 by insertion at codon 234 in exon 7 of the PTEN gene (resulting in downstream stop codons); Sakai, A. et al. (1998), supra.
(§3) The cells were grown in 96-well tissue culture plates in a volume of 200 μl to a concentration of 1×10^6 cells/ml. Then, the cells were incubated for 20 h with a final concentration of 5 μg/ml, 10 μg/ml, and 20 μg/ml 1-O-octadecyl-2-O-methyl-glycero-3-phosphocholine (ET-18-OCH3), respectively. Cell death was assessed by staining the cells with 7-amino-actinomycin D (Calbiochem, Darmstadt, Germany; final concentration 200 μg/ml) and analyzed via flow cytometry using a FACS-Scan flow cytometer (BD Biosciences, San Jose, Calif., USA) as described (see, e.g., Schmid, I. et al. (1994) J. Immunol. Meth. 170, 145-157; Ayuk, F. A. et al. (2005) Exp. Hematol. 33, 1531-1536).
(§4) The cells were again grown in 96-well tissue culture plates in a volume of 200 μl to a concentration of 1×10^6 cells/ml. Then, the cells were incubated for 20 h with the respective drugs. […] The cytotoxic effect of ET-18-OCH3 in combination with bortezomib was determined in Jurkat, HL60 cells, and RPMI8226 cell, whereas the cytotoxic effect of ET-18-OCH3 in combination with cytarabine, fludarabine and etoposide, respectively, in Jurkat and HL60 cells. Cell death was assessed as described in example 1.

[2] = tested on: Jurkat cells; assay: cells; conditions: Homo sapiens, 20 h
Experimental: Cell culture was performed as described in FIG. 1. ET-18-OCH3 was added in a final concentration of 2.5 or 5.0 μg/ml (“E2.5” and “E5”, respectively) without or in combination with 5 or 10 ng/ml bortezomib (“Vel5” and “Vel10”, respectively), and the cells were incubated for 20 h. Cell death was assessed as described in FIG. 1. The results are expressed as mean±SEM of three independent experiments.
as §2, §3, §4

[3] = tested on: RPMI8226; assay: Cytotoxicity (cell death) by 7-amino-actinomycin D staining and flow cytometry, RPMI8226 cells
Experimental: as §1, §2, §3, §4

[4] = tested on: NCI-H929; assay: Cytotoxicity (cell death) by 7-amino-actinomycin D staining and flow cytometry, NCI-H929 cells; type: cell-based
Text: (§5) The following human cell lines were used: • 1.

[5] = tested on: K562; assay: Cytotoxicity (cell death) by 7-amino-actinomycin D staining and flow cytometry, K562 cells; type: cell-based, human; conditions: K562, 20 h, 5, 10 and 20 μg/ml ET-18-OCH3, FIG. 1
Text: as §5

[6] = tested on: KMS-12-BM; assay: Cytotoxicity (cell death) by 7-amino-actinomycin D staining and flow cytometry, KMS-12-BM cells; type: cell-based, human; conditions: 20 h, 5, 10 and 20 μg/ml ET-18-OCH3, FIG. 1
Text: as §5

[7] = tested on: OPM-2 cells; assay: Cytotoxicity (cell death) by 7-amino-actinomycin D staining and flow cytometry, OPM-2 cells; type: cell-based
Text: as §5

[8] = tested on: U266 cells; assay: Cytotoxicity (cell death) by 7-amino-actinomycin D staining and flow cytometry, U266 cells; type: cell-based, human; conditions: U266, 20 h, 5, 10 and 20 μg/ml ET-18-OCH3, FIG. 1
Text: as §5

In the case of `Nc1ccn([C@@H]2O[C@H](CO)[C@@H](O)[C@@H]2O)c(=O)n1` [Cytarabine, cytarabine], the cytotoxicity at 10 µM ([1]; Homo sapiens, HL-60, 20 h) is reported as 24 ± 2.8%, the cytotoxicity at 40 µM ([1]; Homo sapiens, HL-60, 20 h) is reported as 26.9 ± 5% and the cytotoxicity at 10 µM [2] is reported as 11.1 ± 0.5%. For the same compound, the cytotoxicity at 40 µM [2] was 12.4 ± 1.2%.
`CC(C)C[C@H](NC(=O)[C@H](Cc1ccccc1)NC(=O)c1cnccn1)B(O)O` [Bortezomib, bortezomib] was tested, and the cytotoxicity at 0.005 µg/mL ([1]; Homo sapiens, HL-60, 20 h) was 2.7 ± 1.9%, the cytotoxicity at 0.01 µg/mL ([1]; Homo sapiens, HL-60, 20 h) was 10.9 ± 3.7% and the cytotoxicity at 0.005 µg/mL [2] was 0.4 ± 0.5%. It also gave a cytotoxicity at 0.01 µg/mL [2] of 3.6 ± 1.4%, a cytotoxicity at 0.005 µg/mL ([3]; Homo sapiens, RPMI-8226, 20 h) of 7.3 ± 4.5% and a cytotoxicity at 0.01 µg/mL ([3]; Homo sapiens, RPMI-8226, 20 h) of 25.1 ± 4%.
For `CCCCCCCCCCCCCCCCCCOCC(COP(=O)([O-])OCC[N+](C)(C)C)OC` (stereo not shown) [ET-18-OCH3, 1-O-octadecyl-2-O-methyl-glycero-3-phosphocholine], the “cell death in words” value ([4]; NCI-H929, 20 h, 20 μg/ml ET-18-OCH3, FIG. 1) was “almost complete cell death”, the “cytotoxic effect, dose dependence” value ([4]; NCI-H929, 20 h, 5, 10 and 20 μg/ml ET-18-OCH3, FIG. 1) was “dose-dependent effect” and the “cytotoxic effect (cell death) in words” value [5] was “dose-dependent effect; also recorded: significantly reduced or even almost abolished”. The “cytotoxic effect (cell death) in words” value [6] was “significantly reduced or even almost abolished; also recorded: dose-dependent effect”, the “cytotoxic effect, dose dependence” value [1] was “dose-dependent effect” and the “cell death in words” value ([1]; HL60, 20 h, 20 μg/ml ET-18-OCH3, FIG. 1) was “almost complete cell death”. For the same compound, the cytotoxicity at 2.5 µg/mL ([1]; Homo sapiens, HL-60, 20 h) was 11.3 ± 7.3%, the cytotoxicity at 5 µg/mL ([1]; Homo sapiens, HL-60, 20 h) was 35 ± 15.9% and the cells died ([7]; OPM-2, 20 h, 20 μg/ml ET-18-OCH3, FIG. 1) was “about 75%”. For the same compound, the “cytotoxic effect, dose dependence” value ([7]; OPM-2, 20 h, 5, 10 and 20 μg/ml ET-18-OCH3, FIG. 1) was “dose-dependent effect”, the “cytotoxic effect (cell death) in words” value [8] was “do not respond to ET-18-OCH3 at all; also recorded: significantly reduced or even almost abolished” and the cytotoxicity at 2.5 µg/mL [2] was 2.1 ± 1%. It also gave a cytotoxicity at 5 µg/mL [2] of 13.1 ± 5.3%, a cytotoxicity at 2.5 µg/mL ([3]; Homo sapiens, RPMI-8226, 20 h) of 11.2 ± 8.1% and a cytotoxicity at 5 µg/mL ([3]; Homo sapiens, RPMI-8226, 20 h) of 34.7 ± 13.2%. For the same compound, the “cell death in words” value ([3]; RPMI8226, 20 h, 20 μg/ml ET-18-OCH3, FIG. 1) was “almost complete cell death” and the “cytotoxic effect, dose dependence” value ([3]; RPMI8226, 20 h, 5, 10 and 20 μg/ml ET-18-OCH3, FIG. 1) was “dose-dependent effect”.
Compound `COc1cc([C@@H]2c3cc4c(cc3[C@@H](O[C@@H]3O[C@@H]5CO[C@@H](C)O[C@H]5[C@H](O)[C@H]3O)[C@H]3COC(=O)[C@H]23)OCO4)cc(OC)c1O` [Etoposide, etoposide] has a cytotoxicity at 1 µM ([1]; Homo sapiens, HL-60, 20 h) of 4.1 ± 0.7%, a cytotoxicity at 2.5 µM ([1]; Homo sapiens, HL-60, 20 h) of 10.7 ± 5.4% and a cytotoxicity at 5 µM ([1]; Homo sapiens, HL-60, 20 h) of 23.3 ± 8.2%. For the same compound, the cytotoxicity at 1 µM [2] was 5.9 ± 1.1%, the cytotoxicity at 2.5 µM [2] was 10 ± 0.8% and the cytotoxicity at 5 µM [2] was 16.8 ± 8.4%.
For `Nc1nc(F)nc2c1ncn2[C@@H]1O[C@H](CO)[C@@H](O)[C@@H]1O` [Fludarabine, fludarabine], the cytotoxicity at 10 µM ([1]; Homo sapiens, HL-60, 20 h) was 13.8 ± 9.4%, the cytotoxicity at 50 µM ([1]; Homo sapiens, HL-60, 20 h) was 37.2 ± 4.6% and the cytotoxicity at 10 µM [2] was 2.4 ± 0.9%. It also gave a cytotoxicity at 50 µM [2] of 6.2 ± 2.4%.

Source: patent publication US20100136029A1, “Use of Tri-Substituted Glycerol Compounds for the Treatment of Hematological Malignancies” (UNIVERSITATSKLINIKUM HAMBURG-EPPENDORF, priority 2006, published 2010)
